# Source: patent publication US12043612B2, “Methods of manufacturing a bifunctional compound, ultrapure forms of the bifunctional compound, and dosage forms comprising the same” (Arvinas Operations, Inc., priority 2020, dated 2024)
# Assay: Exploratory stability study on Compound A drug substance (HPLC, water content, XRPD)
# Assay type: physicochemical
# Set-up: Water Content: unit: wt %
# Procedure: This is a reverse phase high performance liquid chromatography (HPLC) method devised to determine the assay and impurity profile of Compound A for release and stability testing. The method was qualified for its intended uses. Forced degradation studies were performed and used to qualify this method as stability indicating. The HPLC parameters are listed below in Table 6.
# An exploratory stability study on Compound A is on-going. The stability of Compound A will be studied at 5° C., 25° C./60% RH, and 40° C./75% RH with sampling points at 1, 2, 3, and 6 months. Samples will be analyzed using the stability indicating method TEST-05187 (high performance liquid chromatography (HPLC)).
# The critical quality attributes of the drug substance Compound A that will be monitored are appearance, purity, assay (wt %), impurities, water content, and x-ray powder diffraction (XRPD). The container and closure system for the stability study consists of double plastic (PE) bags placed inside an high-density polyethylene (HDPE) container.
# [1] = Storage at 25° C. ± 2° C./60% RH ± 5%, Initial Date + 1 Month
# [2] = Storage at 25° C. ± 2° C./60% RH ± 5%, Initial Date + 2 Months
# [3] = Storage at 40° C. ± 2° C./75% RH ± 5%, Initial Date + 1 Month
# [4] = Storage at 40° C. ± 2° C./75% RH ± 5%, Initial Date + 2 Months
smiles,measurement,setting,value
"N#Cc1ccc(O[C@H]2CC[C@H](NC(=O)c3ccc(N4CCC(CN5CCN(c6cc7c(cc6F)C(=O)N(C6CCC(=O)NC6=O)C7=O)CC5)CC4)nn3)CC2)cc1Cl (some centres unmarked) [Compound A, N-[(1r,4r)-4-(3-chloro-4-cyanophenoxy)cyclohexyl]-6-[4-({4-[2-(2,6-dioxopiperidin-3-yl)-6-fluoro-1,3-dioxo-2,3-dihydro-1H-isoindol-5-yl]piperazin-1-yl}methyl)piperidin-1-yl]pyridazine-3-carboxamide]",Appearance,[1],Yellow
same,HPLC Assay (wt %),[1],97.3 wt %
same,HPLC Impurities (%) RRT 0.50 (Intermediate 5),[1],0.05%
same,HPLC Impurities (%) RRT 0.89,[1],0.07%
same,HPLC Impurities (%) RRT 0.90,[1],<QL (QL = 0.05%)
same,HPLC Impurities (%) RRT 0.92,[1],0.07%
same,HPLC Impurities (%) RRT 0.94,[1],ND (ND = <0.02%)
same,HPLC Impurities (%) RRT 0.96 (Intermediate 2),[1],0.18%
same,HPLC Impurities (%) RRT 1.02,[1],0.34%
same,HPLC Impurities (%) RRT 1.04 (Intermediate 3),[1],0.07%
same,HPLC Impurities (%) RRT 1.05 (Impurity 1),[1],ND (ND = <0.02%)
same,HPLC Impurities (%) RRT 1.07,[1],0.15%
same,HPLC Impurities (%) RRT 1.23,[1],0.05%
same,HPLC Impurities (%) RRT 1.32,[1],ND (ND = <0.02%)
same,HPLC Impurities (%) RRT 1.36 (Intermediate 9),[1],<QL (QL = 0.05%)
same,HPLC Impurities (%) RRT 1.39,[1],0.57%
same,HPLC Impurities (%) RRT 1.54,[1],<QL (QL = 0.05%)
same,HPLC Purity (%),[1],98.3%
same,Total Impurities (%),[1],1.6%
same,Water Content,[1],0.93
same,XRPD,[1],Crystalline
same,Appearance,[2],Yellow
same,HPLC Assay (wt %),[2],97.5 wt %
same,HPLC Impurities (%) RRT 0.50 (Intermediate 5),[2],0.05%
same,HPLC Impurities (%) RRT 0.89,[2],0.07%
same,HPLC Impurities (%) RRT 0.90,[2],<QL (QL = 0.05%)
same,HPLC Impurities (%) RRT 0.92,[2],0.06%
same,HPLC Impurities (%) RRT 0.94,[2],<QL (QL = 0.05%)
same,HPLC Impurities (%) RRT 0.96 (Intermediate 2),[2],0.17%
same,HPLC Impurities (%) RRT 1.02,[2],0.28%
same,HPLC Impurities (%) RRT 1.05 (Impurity 1),[2],ND (ND = <0.02%)
same,HPLC Impurities (%) RRT 1.07,[2],0.15%
same,HPLC Impurities (%) RRT 1.23,[2],0.05%
same,HPLC Impurities (%) RRT 1.32,[2],<QL (QL = 0.05%)
same,HPLC Impurities (%) RRT 1.36 (Intermediate 9),[2],ND (ND = <0.02%)
same,HPLC Impurities (%) RRT 1.39,[2],0.65%
same,HPLC Impurities (%) RRT 1.54,[2],<QL (QL = 0.05%)
same,HPLC Purity (%),[2],98.3%
same,Total Impurities (%),[2],1.5%
same,Water Content,[2],1.2
same,XRPD,[2],Crystalline
same,Appearance,[3],Yellow
same,HPLC Assay (wt %),[3],97.3 wt %
same,HPLC Impurities (%) RRT 0.50 (Intermediate 5),[3],0.05%
same,HPLC Impurities (%) RRT 0.89,[3],0.06%
same,HPLC Impurities (%) RRT 0.90,[3],<QL (QL = 0.05%)
same,HPLC Impurities (%) RRT 0.92,[3],0.07%
same,HPLC Impurities (%) RRT 0.94,[3],ND (ND = <0.02%)
same,HPLC Impurities (%) RRT 0.96 (Intermediate 2),[3],0.18%
same,HPLC Impurities (%) RRT 1.02,[3],0.34%
same,HPLC Impurities (%) RRT 1.04 (Intermediate 3),[3],0.08%
same,HPLC Impurities (%) RRT 1.05 (Impurity 1),[3],ND (ND = <0.02%)
same,HPLC Impurities (%) RRT 1.07,[3],0.14%
same,HPLC Impurities (%) RRT 1.23,[3],0.05%
same,HPLC Impurities (%) RRT 1.32,[3],ND (ND = <0.02%)
same,HPLC Impurities (%) RRT 1.36 (Intermediate 9),[3],<QL (QL = 0.05%)
same,HPLC Impurities (%) RRT 1.39,[3],0.58%
same,HPLC Impurities (%) RRT 1.54,[3],<QL (QL = 0.05%)
same,HPLC Purity (%),[3],98.3%
same,Total Impurities (%),[3],1.6%
same,Water Content,[3],1.0
same,XRPD,[3],Crystalline
same,Appearance,[4],Yellow
same,HPLC Assay (wt %),[4],97.2 wt %
same,HPLC Impurities (%) RRT 0.50 (Intermediate 5),[4],0.06%
same,HPLC Impurities (%) RRT 0.89,[4],0.06%
same,HPLC Impurities (%) RRT 0.90,[4],<QL (QL = 0.05%)
same,HPLC Impurities (%) RRT 0.92,[4],0.07%
same,HPLC Impurities (%) RRT 0.94,[4],<QL (QL = 0.05%)
same,HPLC Impurities (%) RRT 0.96 (Intermediate 2),[4],0.18%
same,HPLC Impurities (%) RRT 1.02,[4],0.28%
same,HPLC Impurities (%) RRT 1.04 (Intermediate 3),[4],<QL (QL = 0.05%)
same,HPLC Impurities (%) RRT 1.05 (Impurity 1),[4],ND (ND = <0.02%)
same,HPLC Impurities (%) RRT 1.07,[4],0.14%
same,HPLC Impurities (%) RRT 1.23,[4],0.06%
same,HPLC Impurities (%) RRT 1.32,[4],<QL (QL = 0.05%)
same,HPLC Impurities (%) RRT 1.36 (Intermediate 9),[4],ND (ND = <0.02%)
same,HPLC Impurities (%) RRT 1.39,[4],0.63%
same,HPLC Impurities (%) RRT 1.54,[4],<QL (QL = 0.05%)
same,HPLC Purity (%),[4],98.3%
same,Total Impurities (%),[4],1.5%
same,Water Content,[4],1.3
same,XRPD,[4],Crystalline
same,change in impurities and solid properties,after 2 months at all temperature stations,no increase in impurities nor change in solid properties
same,change in impurities and solid properties,after 5 months from the date of manufacture,no increase in impurities or change in solid properties
same,change in water content,"stability study, all temperature stations",small increase in the water content
